Results as given in patent publication US20240245691A1 (Sitryx Therapeutics Limited, priority 2021, published 2024).
Where two headings read alike, the source gives them in different places.

Assays:
IL-1β = assay: THP-1 AlphaLISA IL-1β cytokine assay (differentiated THP-1 cells); type: cell-based; settings: Homo sapiens
Description: (§1) Measuring Inhibitory Effects on IL-1V Cytokine and IL-6 Output from THP-1s
(§2) The cytokine inhibition profiles of compounds of formula (I) were determined in a differentiated THP-1 cell assay. All assays were performed in RPMI-1640 growth medium (Gibco), supplemented with 10% fetal bovine serum (FBS; Gibco), 1% penicillin-streptomycin and 1% sodium pyruvate unless specified otherwise. The IL-1β and IL-6 cytokine inhibition assays were run in a background of differentiated THP-1 cells as described below. All reagents described were from Sigma-Aldrich unless specified otherwise. Compounds were prepared as 10 mM DMSO stocks.
(§3) THP-1 cells were expanded as a suspension up to 80% confluence in appropriate growth medium. Cells were harvested, suspended, and treated with an appropriate concentration of phorbol 12-myristate 13-acetate (PMA) over a 72 hr period (37° C./5% CO2).
(§4) Following 72 hrs of THP-1 cell incubation, cellular medium was removed and replaced with fresh growth media containing 1% of FBS. Working concentrations of compounds were prepared separately in 10% FBS treated growth medium and pre-incubated with the cells for 30 minutes (37° C./5% CO2). Following the 30 minute compound pre-incubation, THP-1s were treated with an appropriate concentration of LPS and the THP-1s were subsequently incubated for a 24 hr period (37° C./5% CO2). An appropriate final concentration of Nigericin was then dispensed into the THP-1 plates and incubated for 1 hour (37° C./5% CO2) before THP-1 supernatants were harvested and collected in separate polypropylene 96-well holding plates.
(§5) Reagents from each of the IL-1β and IL-6 commercial kits (Perkin Elmer) were prepared and run according to the manufacturer's instructions. Subsequently, fluorescence signal detection in a microplate reader was measured (EnVision® Multilabel Reader, Perkin Elmer).
(§6) Percentage inhibition was calculated per cytokine by normalising the sample data to the high and low controls used within each plate (+/−LPS respectively).
(§7) Dimethyl itaconate and 4-octyl itaconate were included as comparator compounds.

IL-6 = assay: THP-1 AlphaLISA IL-6 cytokine assay (differentiated THP-1 cells); type: cell-based
Description: as §1, §2, §3, §4, §5, §6, §7

[1] = Hepatocyte stability assay, human; type: in vitro ADME; settings: human, hepatocytes, T½
Source text: (§8) Defrosted cryo-preserved hepatocytes (viability>70%) were used to determine the metabolic stability of a compound via calculation of intrinsic clearance (CIint; a measure of the removal of a compound from the liver in the absence of blood flow and cell binding). Clearance data are particularly important for in vitro work as they can be used in combination with in vivo data to predict the half-life and oral bioavailability of a drug.
(§9) The metabolic stability in hepatocytes assay involved a time-dependent reaction using both positive and negative controls. The cells must be pre-incubated at 37° C. then spiked with test compound (and positive control); samples taken at pre-determined time intervals were analysed to monitor the change in concentration of the initial drug compound over 60 minutes. A buffer incubation reaction (with no hepatocytes present) acted as a negative control and two cocktail solutions, containing compounds with known high and low clearance values (verapamil/7-hydroxycoumarin and propranolol/diltiazem), acted as positive controls. • 1. The assay was run with a cell concentration of 0.5×10^6 cells/mL in Leibovitz buffer. • 2. All compounds and controls were run in duplicate. • 3. Compound concentration was 10 μM. • 4. All compounds and controls were incubated with both cells and buffer to show turnover is due to hepatic metabolism. • 5. All wells on the incubation plate had 326.7 μL of either cells or buffer added. • 6. Prior to assay, cell and buffer-only incubation plates were preincubated for 10 mins at 37° C. • 7. The assay was initiated by adding compounds, 3.3 μL of 1 mM in 10% DMSO-90% Buffer; final DMSO concentration is 0.1%. • 8. Samples were taken at regular timepoints (0, 5, 10, 20, 40, 60 min) until 60 mins. • 9. Sample volume was 40 μL and added to 160 μL of crash solvent (acetonitrile with internal standard) and stored on ice. • 10. At the end of the assay, the crash plates were centrifuged at 3500 rpm for 20 mins at 4° C. • 11. 80 μL of clear supernatant was removed and mixed with 80 μL of deionised water before being analysed by LC-MS/MS.
(§10) Raw LC-MS/MS data were exported to, and analysed in, Microsoft Excel for determination of intrinsic clearance. The percentage remaining of a compound was monitored using the peak area of the initial concentration as 100%. Intrinsic clearance and half-life values were calculated using a graph of the natural log of percentage remaining versus the time of reaction in minutes.
(§11) 4-Octyl itaconate was included as a comparator compound.

[2] = tested on: cryo-preserved hepatocytes; assay: Hepatocyte stability assay, human; type: in vitro ADME; settings: human, hepatocytes
Source text: as §8, §9, §10, §11

[3] = Hepatocyte stability assay, mouse; type: in vitro ADME; settings: mouse, hepatocytes, T½
Source text: as §8, §9, §10, §11

[4] = tested on: cryo-preserved hepatocytes; assay: Hepatocyte stability assay, mouse; type: in vitro ADME; settings: mouse, hepatocytes
Source text: as §8, §9, §10, §11

[5] = Homo sapiens, THP-1, read-out: IL-6 (IC50)
[6] = THP-1, differentiated THP-1 cells, LPS 24 hr then Nigericin 1 hour, read-out: IL-1β (IC50)
[7] = Homo sapiens, THP-1, differentiated THP-1 cells, LPS 24 hr then Nigericin 1 hour, read-out: IL-6 (IC50)

SMILES	half-life at 10 μM [1]	Clint [2]	half-life at 10 μM [3]	Clint [4]	IC50 (IL-1β; [6])	IC50 (IL-6; [7])	IC50 (IL-6; differentiated THP-1 cells, LPS 24 hr then Nigericin 1 hour, read-out: IL-6 (IC50))	IC50 (IL-1β; THP-1, differentiated THP-1 cells, footnote a: data from repeated experiments, read-out: IL-1β (IC50), data from repeated experiments)	IC50 (IL-1β; THP-1, read-out: IL-1β (IC50))	IC50 (IL-6; [5])
C=C(CC(=O)N[C@@H](C)c1ccc(C(F)(F)F)cc1)C(=O)OC1(C)COC1 [Example 28, 3-methyloxetan-3-yl (S)-2-methylene-4-oxo-4-((1-(4-(trifluoromethyl)phenyl)ethyl)amino)butanoate]	0.3 h	80 μL min^−1 10^−6 cells	< 0.05 h	>460 μL min^−1 10^−6 cells	–	–	–	–	10.5 µM	5.6 µM
C=C(CC(=O)NC1(c2ccc(C(F)(F)F)cc2)COC1)C(=O)O [Example 13, 2-methylene-4-oxo-4-((3-(4-(trifluoromethyl)phenyl)oxetan-3-yl)amino)butanoic acid]	7.17 h	3 μL min^−1 10^−6 cells	> 7.67 h	<3 μL min^−1 10^−6 cells	19.5 µM	> 31.6 µM	–	–	–	–
C=C(CC(=O)NC(c1ccc(C(F)(F)F)cc1)C1CC1)C(=O)O (stereo not shown) [Example 10, 4-((cyclopropyl(4-(trifluoromethyl)phenyl)methyl)amino)-2-methylene-4-oxobutanoic acid]	> 7.67 h	<3 μL min^−1 10^−6 cells	> 7.67 h	<3 μL min^−1 10^−6 cells	16.6 µM	> 100 µM	–	–	–	–
C/C=C(/CC(=O)N[C@@H](C)c1ccc(C(F)(F)F)cc1)C(=O)O [Example 41, (S,Z)-2-(2-oxo-2-((1-(4-(trifluoromethyl)phenyl)ethyl)amino)ethyl)but-2-enoic acid]	> 7.67 h	<3 μL min^−1 10^−6 cells	> 7.67 h	<3 μL min^−1 10^−6 cells	–	–	–	–	24.3 µM	> 31.6 µM
C=C(C(=O)O)C(C)C(=O)N[C@@H](C)c1ccc(C(F)(F)F)cc1 (single isomer, unassigned; isomer 1) [Example 54]	> 7.67 h	<3 μL min^−1 10^−6 cells	6.67 h	4 μL min^−1 10^−6 cells	31 µM	–	> 100 µM	–	–	–
C[C@H](NC(=O)C/C(=C\c1ccccc1)C(=O)O)c1ccc(C(F)(F)F)cc1 [Example 47, (S,E)-2-benzylidene-4-oxo-4-((1-(4-(trifluoromethyl)phenyl)ethyl)amino)butanoic acid]	> 7.67 h	<3 μL min^−1 10^−6 cells	2.2 h	12 μL min^−1 10^−6 cells	> 100 µM	> 100 µM	–	–	–	–

More lines, main results first:

half-life at 10 μM [1]	Clint [2]	half-life at 10 μM [3]	Clint [4]	IC50 (IL-1β; [6])	IC50 (IL-6; [7])	IC50 (IL-6; differentiated THP-1 cells, LPS 24 hr then Nigericin 1 hour, read-out: IL-6 (IC50))	IC50 (IL-1β; THP-1, differentiated THP-1 cells, footnote a: data from repeated experiments, read-out: IL-1β (IC50), data from repeated experiments)	SMILES	IC50 (IL-1β; THP-1, read-out: IL-1β (IC50))	IC50 (IL-6; [5])
> 7.67 h	<3 μL min^−1 10^−6 cells	> 7.67 h	<3 μL min^−1 10^−6 cells	15.4 µM	> 100 µM	–	–	C=C(CC(=O)NC1(c2ccc(C(F)(F)F)cn2)CCC1)C(=O)O [Example 39, 2-methylene-4-oxo-4-((1-(5-(trifluoromethyl)pyridin-2-yl)cyclobutyl)amino) butanoic acid]	–	–
3.83 h	8 μL min^−1 10^−6 cells	0.793 h	30 μL min^−1 10^−6 cells	2.1 µM	> 31.6 µM	–	–	CC(C)C/C=C(\CC(=O)N[C@@H](C)c1ccc(C(F)(F)F)cc1)C(=O)O [Example 45, (S,E)-5-methyl-2-(2-oxo-2-((1-(4-(trifluoromethyl)phenyl)ethyl)amino)ethyl)hex-2-enoic acid]	–	–
3.73 h	7 μL min^−1 10^−6 cells	0.267 h	95 μL min^−1 10^−6 cells	2.3 µM	> 100 µM	–	–	C[C@H](NC(=O)C/C(=C/c1ccccc1)C(=O)O)c1ccc(C(F)(F)F)cc1 [Example 48, (S,Z)-2-benzylidene-4-oxo-4-((1-(4-(trifluoromethyl)phenyl)ethyl)amino)butanoic acid]	–	–
> 7.67 h	<3 μL min^−1 10^−6 cells	2.77 h	11 μL min^−1 10^−6 cells	3.3 µM	> 100 µM	–	–	C=C(CC(=O)N[C@@H](C)c1ccc(S(F)(F)(F)(F)F)cc1)C(=O)O [Example 56, (S)-2-methylene-4-oxo-4-((1-(4-(pentafluoro-A6-sulfaneyl)phenyl)ethyl)amino)butanoic acid]	–	–
> 7.67 h	<3 μL min^−1 10^−6 cells	0.367 h	76 μL min^−1 10^−6 cells	4 µM	> 100 µM	–	–	C=C(CC(=O)N[C@H](c1ccc(C(F)(F)F)cc1)C(F)(F)F)C(=O)O [Example 21, (R)-2-methylene-4-oxo-4-((2,2,2-trifluoro-1-(4-(trifluoromethyl)phenyl)ethyl)amino)butanoic acid]	–	–
> 7.67 h	<3 μL min^−1 10^−6 cells	> 7.67 h	<3 μL min^−1 10^−6 cells	8.3 µM	> 100 µM	–	–	C=C(CC(=O)NC1(c2ccc(C(F)(F)F)cc2)CC1)C(=O)O [Example 11, 2-methylene-4-oxo-4-((1-(4-(trifluoromethyl)phenyl)cyclopropyl)amino)butanoic acid]	–	–
4.68 h	6 μL min^−1 10^−6 cells	4.1 h	7 μL min^−1 10^−6 cells	3.8 µM	> 56.2 µM	–	4.9 µM	C=C(CC(=O)N[C@@H](C)c1ccc(Br)cc1)C(=O)O [Example 16, (S)-4-((1-(4-bromophenyl)ethyl)amino)-2-methylene-4-oxobutanoic acid]	–	–
> 7.67 h	<3 μL min^−1 10^−6 cells	1.73 h	13 μL min^−1 10^−6 cells	1.1 µM	> 100 µM	–	–	C=C(C(=O)O)C(C)(C)C(=O)N[C@@H](C)c1ccc(C(F)(F)F)cc1 [Example 50, (S)-3,3-dimethyl-2-methylene-4-oxo-4-((1-(4-(trifluoromethyl)phenyl)ethyl)amino)butanoic acid]	–	–
7.28 h	4 μL min^−1 10^−6 cells	6.7 h	4 μL min^−1 10^−6 cells	8.8 µM	> 31.6 µM	–	–	C=C(CC(=O)N[C@@H](C)c1ccc(C(F)(F)F)c(F)c1)C(=O)O [Example 19, (S)-4-((1-(3-fluoro-4-(trifluoromethyl)phenyl)ethyl)amino)-2-methylene-4-oxobutanoic acid]	–	–
